In paper PMC8589421, “Impact of Type II LRRK2 inhibitors on signaling and mitophagy” (Biochemical Journal, 2021):

How the values were obtained:
[1] = system: basal mitophagy, wild type MEFs; experiment: mito-QC basal mitophagy in wild-type primary MEFs; format: cell-based, mouse; conditions: 24 h, 30–300 nM GZD-824, GSK3357679A 100 nM positive control
Method: To assess mitophagy, wild type, G2019S knock in, and LRRK2 knock out primary mouse embryonic fibroblasts (MEFs) were derived, from time-mated pregnant females at E12.5 as previously described. Briefly, cells were plated on glass coverslips and incubated with DMEM (Gibco, 11960-044) supplemented with 10% FBS, 2 mM L-Glutamine (Gibco, 2503-081), 1% non-essential amino acids (Gibco, 11140-035), 1% Antibiotics (Penicillin/Streptomycin 100 U/ml penicillin and 100 µg/ml streptomycin; Gibco), and 150 µM β-Mercaptoethanol (Gibco, 21985-023) at 37°C under a humidified 5% CO2 atmosphere. […] GSK3357679A 100 nM (Ding et al., in prep) was used as a positive control. At the end of the treatment, MEFs were briefly washed twice in DPBS (Gibco, 14190-094), and fixed in 3.7% Paraformaldehyde pH 7.00 (Sigma, P6148), 200 mM HEPES, for 20 min. Cells were then washed two times with DMEM, 10 mM HEPES, and then incubated for 10 min with DMEM, 10 mM HEPES. […] Images were acquired using a Nikon Eclipse Ti-S fluorescence microscope with a 63× objective. Images were analyzed using the mito-QC counter as previously described. Experiments were performed in 3–4 independent experiments and data was analyzed with a one-way ANOVA followed by a Dunnett's multiple comparison test using the GraphPad Prism software (version 8.4.3 (686)).

Rab10 phosphorylation = Rab10 phosphorylation in primary human neutrophils; format: cell-based; conditions: primary human neutrophils from two donors, 45 min
Method: Cell extracts were mixed with a quarter of a volume of NuPage LDS Sample buffer 4× Invitrogen and heated at 95°C for 5 min. […] At the end of electrophoresis, proteins were electrophoretically transferred onto the nitrocellulose membrane (GE Healthcare, Amersham Protran Supported 0.45 µm NC) at 100 V for 90 min on ice in the transfer buffer (48 mM Tris–HCl and 39 mM glycine supplemented with 20% methanol). Transferred membrane was blocked with 5% (w/v) skim milk powder dissolved in TBS-T [20 mM Tris–HCl, pH 7.5, 150 mM NaCl and 0.1% (v/v) Tween 20] at room temperature for 1 h. The membrane was typically cropped into three pieces, namely the ‘top piece’ (from the top of the membrane to 75 kDa), the ‘middle piece’ (between 75 and 30 kDa) and the ‘bottom piece’ (from 30 kDa to the bottom of the membrane). All primary antibodies were used at 1 μg/ml final concentration and incubated in TBS-T containing 5% (by mass) bovine serum albumin with exception of α-tubulin and GAPDH antibodies that were diluted 1 : 5000 and 1 : 2000, respectively. The top piece was incubated with the indicated rabbit anti-LRRK2 phosphorylation site antibody multiplexed with mouse anti-LRRK2 C-terminus total antibody. […] Protein bands were acquired via near infrared fluorescent detection using the Odyssey CLx imaging system and quantified using the Image Studio software. […]

[2] = system: Dundee panel of 140 protein kinases; experiment: Kinase profiling; format: biochemical
Text: […] Results for each kinase are presented as the mean kinase activity ±S.D. for an assay undertaken in duplicate relative to a control kinase assay in which the inhibitor was omitted. Abbreviations and assay conditions used for each kinase are available (http://www.kinase-screen.mrc.ac.uk/services/premier-screen).

SMILES: Cc1ccc(C(=O)Nc2ccc(CN3CCN(C)CC3)c(C(F)(F)F)c2)cc1C#Cc1cnc2[nH]ncc2c1 [GZD-824]
- stimulation of basal mitophagy [1]: ~2 fold
- concentration giving maximal inhibition of Rab10 phosphorylation (Rab10 phosphorylation): 300 nM
- number of the 140 kinases assayed suppressed by over 80% ([2]; 0.1 μM inhibitor): 22
- number of the 140 kinases assayed suppressed by over 80% ([2]; 1 μM inhibitor): 43
